Data: publication PMC8956739, “A synthetic lipopeptide targeting top-priority multidrug-resistant Gram-negative pathogens” (Nature Communications, 2022)
Converted amounts (≈) assume the structure as drawn. Residues, ends and D or L forms follow the SMILES beside them.

Columns and labels:
Format in all cases: cell-based, Acinetobacter baumannii
A. baumannii ATCC 19606 = details: ATCC 19606
How it was run: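 Each strain is tested in cation-adjusted Mueller–Hinton broth using the micro-dilution technique, and growth inhibition gives the MIC.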

A. baumannii FADDI-AB030 = details: FADDI-AB030
How it was run: (§1)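 Broth microdilution, CaMHB; MIC read as the antibacterial endpoint against ATCC reference strains and clinical isolates.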

A. baumannii FADDI-AB034 = details: FADDI-AB034
How it was run: as §1

A. baumannii AB5075 = test: Transcriptomic analysis (RNA-Seq) of bacteria; details: for logFC (Differential gene expression for all genes), Geneid ABUW_RS00005 / logFC (Differential gene expression for all genes), Geneid ABUW_RS00020 / logFC (Fold change), gene ABUW_RS00010 / logFC (Fold change), gene ABUW_RS00030 / logFC (Fold change), gene ABUW_RS00035 / logFC (Fold change), gene recF (ABUW_RS00015) / 4h_1h logFC (Differential gene expression for all genes), Geneid ABUW_RS00005 / 4h_1h logFC (Differential gene expression for all genes), Geneid ABUW_RS00010 / 4h_1h logFC (Differential gene expression for all genes), Geneid ABUW_RS00015 / 4h_1h logFC (Differential gene expression for all genes), Geneid ABUW_RS00020: RNA-Seq A. baumannii AB5075; for log2FC, gene ABUW_RS01945 (acyl-CoA thioesterase II) / log2FC, gene ABUW_RS02545 (acyl-CoA thioesterase) / log2FC, gene ABUW_RS05045 (acyl-CoA thioesterase) / log2FC, gene ABUW_RS17575 (acyl-CoA thioesterase): pathway Fatty Acid and Lipid Degradation; for 4h_1h logFC (Differential gene expression for all genes), Geneid ABUW_RS00005 / 4h_1h logFC (Differential gene expression for all genes), Geneid ABUW_RS00010 / 4h_1h logFC (Differential gene expression for all genes), Geneid ABUW_RS00015 / 4h_1h logFC (Differential gene expression for all genes), Geneid ABUW_RS00020: 4h vs 1h
Experimental: Mid-log phase A. baumannii AB5075 (~10^8 CFU/mL) in CaMHB was treated with colistin (2 and 8 μg/mL), F287, F319 or F365 (equimolar concentration to colistin) for 1 and 4 h. Total RNA was extracted using TRIzol Reagent (Invitrogen, USA) and RNeasy Mini Kit (Qiagen, Germany). Quality check of RNA samples was conducted with NanoDrop (Thermo Fisher Scientific, USA) and Agilent 2100 Bioanalyzer (Agilent Technologies, USA) for sequencing (150 bp paired-end) at Genewiz (Shanghai, China). Raw reads were aligned to A. baumannii AB5075 genome (GCF_000963815, https://www.ncbi.nlm.nih.gov/assembly/GCF_000963815.1/) using subread-aligner (subread 2.0.1) and summarized by featureCounts (subread 2.0.1). Principal component analysis (PCA) was conducted with mixOmics 6.14.1 in R. Differentially expressed genes were determined using limma 3.46.0 with a combination of fold change ≥ 2 and false discovery rate (FDR, by Benjamini–Hochberg algorithm) adjusted P-value ≤ 0.05 (n = 3). Enrichment analysis of gene differential expression in AB5075 was conducted using BioCyc (A. baumannii AB5075, version 25.5). UpSetR 1.4.0, ComplexHeatmap 2.6.2 and circlize 0.4.13 were used for data visualization. Raw data were deposited in Short Reads Archive (SRA) database under accession numbers SRR15235669-SRR15235725.

CCCCCCCC(=O)N[C@@H](CCN)C(=O)N[C@H](C(=O)N[C@@H](CCN)C(=O)N[C@H]1CCNC(=O)[C@H]([C@@H](C)O)NC(=O)[C@H](CCN)NC(=O)[C@H](CCN)NC(=O)[C@H](CC)NC(=O)[C@@H](CC(C)C)NC(=O)[C@H](CCN)NC1=O)[C@@H](C)O [Lipopeptide F319] (HELM PEPTIDE1{[CCCCCCCC(=O)[*:2]].[Dab].T.[Dab].[Dab].[Dab].[dL].[Abu].[Dab].[Dab].T}$PEPTIDE1,PEPTIDE1,5:R3-11:R2$$$V2.0)
MIC A. baumannii ATCC 19606 (A. baumannii ATCC 19606): 0.5 µg/mL (≈ 0.443 µM) | MIC A. baumannii FADDI-AB030 (A. baumannii FADDI-AB030): 0.5 µg/mL (≈ 0.443 µM) | MIC A. baumannii FADDI-AB034 (A. baumannii FADDI-AB034): <0.125 µg/mL | logFC (Differential gene expression for all genes), Geneid ABUW_RS00005 (A. baumannii AB5075; H vs Cont, 1h): -0.09763 | logFC (Differential gene expression for all genes), Geneid ABUW_RS00020 (A. baumannii AB5075; H vs Cont, 1h): 0.4439 | logFC (Fold change), gene ABUW_RS00010 (A. baumannii AB5075; H vs Cont, 1h): 0.5437 | logFC (Fold change), gene ABUW_RS00030 (A. baumannii AB5075; H vs Cont, 1h): -0.5665 | logFC (Fold change), gene ABUW_RS00035 (A. baumannii AB5075; H vs Cont, 1h): 1.083 | logFC (Fold change), gene recF (ABUW_RS00015) (A. baumannii AB5075; H vs Cont, 1h): -0.2736 | log2FC, gene ABUW_RS01945 (acyl-CoA thioesterase II) (A. baumannii AB5075; H vs Cont, 1h): 0.4348 | log2FC, gene ABUW_RS02545 (acyl-CoA thioesterase) (A. baumannii AB5075; H vs Cont, 1h): 1.57 | log2FC, gene ABUW_RS05045 (acyl-CoA thioesterase) (A. baumannii AB5075; H vs Cont, 1h): 0.3422 | log2FC, gene ABUW_RS17575 (acyl-CoA thioesterase) (A. baumannii AB5075; H vs Cont, 1h): -0.5597 | logFC (Differential gene expression for all genes), Geneid ABUW_RS00005 (A. baumannii AB5075; H vs Cont, 4h): -0.2808 | logFC (Differential gene expression for all genes), Geneid ABUW_RS00020 (A. baumannii AB5075; H vs Cont, 4h): -0.01751 | logFC (Fold change), gene ABUW_RS00010 (A. baumannii AB5075; H vs Cont, 4h): 1.173 | logFC (Fold change), gene ABUW_RS00030 (A. baumannii AB5075; H vs Cont, 4h): -1.885 | logFC (Fold change), gene ABUW_RS00035 (A. baumannii AB5075; H vs Cont, 4h): 0.8498 | logFC (Fold change), gene recF (ABUW_RS00015) (A. baumannii AB5075; H vs Cont, 4h): -1.612 | log2FC, gene ABUW_RS01945 (acyl-CoA thioesterase II) (A. baumannii AB5075; H vs Cont, 4h): -0.7411 | log2FC, gene ABUW_RS02545 (acyl-CoA thioesterase) (A. baumannii AB5075; H vs Cont, 4h): 1.194 | log2FC, gene ABUW_RS05045 (acyl-CoA thioesterase) (A. baumannii AB5075; H vs Cont, 4h): 0.6506 | log2FC, gene ABUW_RS17575 (acyl-CoA thioesterase) (A. baumannii AB5075; H vs Cont, 4h): -1.957 | 4h_1h logFC (Differential gene expression for all genes), Geneid ABUW_RS00005 (A. baumannii AB5075; H): -0.8466 | 4h_1h logFC (Differential gene expression for all genes), Geneid ABUW_RS00010 (A. baumannii AB5075; H): 0.6539 | 4h_1h logFC (Differential gene expression for all genes), Geneid ABUW_RS00015 (A. baumannii AB5075; H): -1.958 | 4h_1h logFC (Differential gene expression for all genes), Geneid ABUW_RS00020 (A. baumannii AB5075; H): 0.139 | logFC (Differential gene expression for all genes), Geneid ABUW_RS00005 (A. baumannii AB5075; L vs Cont, 1h): 0.2742 | logFC (Differential gene expression for all genes), Geneid ABUW_RS00020 (A. baumannii AB5075; L vs Cont, 1h): 0.3388 | logFC (Fold change), gene ABUW_RS00010 (A. baumannii AB5075; L vs Cont, 1h): 0.1491 | logFC (Fold change), gene ABUW_RS00030 (A. baumannii AB5075; L vs Cont, 1h): 0.2512 | logFC (Fold change), gene ABUW_RS00035 (A. baumannii AB5075; L vs Cont, 1h): -0.1567 | logFC (Fold change), gene recF (ABUW_RS00015) (A. baumannii AB5075; L vs Cont, 1h): 0.1396 | log2FC, gene ABUW_RS01945 (acyl-CoA thioesterase II) (A. baumannii AB5075; L vs Cont, 1h): 0.4255 | log2FC, gene ABUW_RS02545 (acyl-CoA thioesterase) (A. baumannii AB5075; L vs Cont, 1h): 0.2059 | log2FC, gene ABUW_RS05045 (acyl-CoA thioesterase) (A. baumannii AB5075; L vs Cont, 1h): -0.2352 | log2FC, gene ABUW_RS17575 (acyl-CoA thioesterase) (A. baumannii AB5075; L vs Cont, 1h): 0.153 | logFC (Differential gene expression for all genes), Geneid ABUW_RS00005 (A. baumannii AB5075; L vs Cont, 4h): 0.0635 | logFC (Differential gene expression for all genes), Geneid ABUW_RS00020 (A. baumannii AB5075; L vs Cont, 4h): -0.109 | logFC (Fold change), gene ABUW_RS00010 (A. baumannii AB5075; L vs Cont, 4h): 0.1358 | logFC (Fold change), gene ABUW_RS00030 (A. baumannii AB5075; L vs Cont, 4h): 0.06806 | logFC (Fold change), gene ABUW_RS00035 (A. baumannii AB5075; L vs Cont, 4h): 0.1484 | logFC (Fold change), gene recF (ABUW_RS00015) (A. baumannii AB5075; L vs Cont, 4h): -0.1014 | log2FC, gene ABUW_RS01945 (acyl-CoA thioesterase II) (A. baumannii AB5075; L vs Cont, 4h): 0.08809 | log2FC, gene ABUW_RS02545 (acyl-CoA thioesterase) (A. baumannii AB5075; L vs Cont, 4h): -0.3183 | log2FC, gene ABUW_RS05045 (acyl-CoA thioesterase) (A. baumannii AB5075; L vs Cont, 4h): 0.2863 | log2FC, gene ABUW_RS17575 (acyl-CoA thioesterase) (A. baumannii AB5075; L vs Cont, 4h): 0.3089 | 4h_1h logFC (Differential gene expression for all genes), Geneid ABUW_RS00005 (A. baumannii AB5075; L): -0.004361 | 4h_1h logFC (Differential gene expression for all genes), Geneid ABUW_RS00010 (A. baumannii AB5075; L): -0.867 | 4h_1h logFC (Differential gene expression for all genes), Geneid ABUW_RS00015 (A. baumannii AB5075; L): -0.3076 | 4h_1h logFC (Differential gene expression for all genes), Geneid ABUW_RS00020 (A. baumannii AB5075; L): -0.09503
